Reference: article PMC6445163, “Design, synthesis, and evaluation of novel 2-phenylpropionic acid derivatives as dual COX inhibitory-antibacterial agents” (Journal of Enzyme Inhibition and Medicinal Chemistry, 2017)
Values after ≈ are worked out from the molar mass of the structure shown.

Assays:
[1] = system: Escherichia coli (ATCC 35218); test: broth microdilution MIC (CLSI M07-A9), resazurin; assay type: cell-based; conditions: for MIC: ATCC35218, 24 h, read-out: MIC Ec-1
Procedure: (§1) Microbiological studies were performed according to following guides: CLSI reference […]-A9 broth microdilution method[49] for bacterial strains and EUCAST definitive (EDef 7.1) method[50] for Candida species. Synthesized compounds were tested for their in vitro growth inhibitory activity against Staphylococcus aureus (ATCC 25923), Enterococcus faecalis (ATCC 29212), Listeria monocytogenes (ATCC 1911), Klebsiella pneumoniae (NCTC 9633), Escherichia coli (ATCC 35218), E. coli (ATCC 25922) Candida albicans (ATCC 24433) Candida krusei (ATCC 6258) and Candida parapsilosis (ATCC 22019). Chloramphenicol and ketoconazole were used as control drugs. The cultures were obtained from the Mueller-Hinton broth (Difco) for the bacterial strains after overnight incubation at 37 °C. The yeasts were maintained in Roswell Park Memorial Institute (RPMI) after overnight incubation at 37 °C. […] Testing was carried out in Mueller-Hinton broth and RPMI at pH =7, and the two-fold serial dilutions technique was applied. The last well on the microplates containing only inoculated broth was kept as controls and the last well with no growth of microorganism was recorded to represent the minimum inhibitory concentration (MIC) expressed in μg/mL. For both the antibacterial and antifungal assays, the compounds were dissolved in DMSO. […] The completed plates were incubated for 24 h. At the end of the incubation, resazurin (20 μg/mL) was added into each well and plates were incubated for 2 h. MIC values were determined using a microplate reader at […]. Synthesized compounds (6a-6m) were evaluated for antimicrobial activity against various microorganisms such as Staphylococcus aureus (ATCC 25923), Enterococcus faecalis (ATCC 29212), Listeria monocytogenes (ATCC 1911), Klebsiella pneumoniae (NCTC 9633), Escherichia coli (ATCC 35218), E. coli (ATCC 25922)Candida albicans (ATCC 24433) Candida krusei (ATCC 6258) and Candida parapsilosis (ATCC 22019). […] Chloramphenicol and ketoconazole were used as standard drugs in the activity test. […] Besides, the compounds 6d, 6h, 6l and 6m indicated stronger antibacterial activity than the other compounds in the series.

[2] = system: Klebsiella pneumoniae (NCTC 9633); test: broth microdilution MIC (CLSI M07-A9), resazurin; assay type: cell-based; conditions: 24 h
Procedure: as §1

[3] = system: Listeria monocytogenes (ATCC 1911); test: broth microdilution MIC (CLSI M07-A9), resazurin; assay type: cell-based; conditions: ATCC1911, 24 h
Procedure: as §1

[4] = system: Escherichia coli (ATCC 25922); test: broth microdilution MIC (CLSI M07-A9), resazurin; assay type: cell-based; conditions: ATCC25922, 24 h, read-out: MIC Ec-2
Procedure: as §1

[5] = system: Staphylococcus aureus (ATCC 25923); test: broth microdilution MIC (CLSI M07-A9), resazurin; assay type: cell-based; conditions: ATCC25923, 24 h
Procedure: as §1

[6] = system: Enterococcus faecalis (ATCC 29212); test: broth microdilution MIC (CLSI M07-A9), resazurin; assay type: cell-based; conditions: ATCC29212, 24 h
Procedure: as §1

[7] = system: Candida krusei (ATCC 6258); test: broth dilution MIC (EUCAST EDef 7.1), resazurin; assay type: cell-based; conditions: Pichia kudriavzevii, ATCC6258, 24 h
Procedure: as §1

[8] = system: Candida albicans (ATCC 24433); test: broth dilution MIC (EUCAST EDef 7.1), resazurin; assay type: cell-based; conditions: ATCC24433, 24 h
Procedure: as §1

[9] = system: Candida parapsilosis (ATCC 22019); test: broth dilution MIC (EUCAST EDef 7.1), resazurin; assay type: cell-based; conditions: ATCC22019, 24 h
Procedure: as §1

COX-2 = target: T1, COX-2 (Homo sapiens, UniProt P35354); test: fluorometric COX-2 inhibitor screening kit assay; assay type: biochemical; conditions: 25 °C
T1 construct: purchased Biovision K547-100
T1 sequence (P35354 18-604): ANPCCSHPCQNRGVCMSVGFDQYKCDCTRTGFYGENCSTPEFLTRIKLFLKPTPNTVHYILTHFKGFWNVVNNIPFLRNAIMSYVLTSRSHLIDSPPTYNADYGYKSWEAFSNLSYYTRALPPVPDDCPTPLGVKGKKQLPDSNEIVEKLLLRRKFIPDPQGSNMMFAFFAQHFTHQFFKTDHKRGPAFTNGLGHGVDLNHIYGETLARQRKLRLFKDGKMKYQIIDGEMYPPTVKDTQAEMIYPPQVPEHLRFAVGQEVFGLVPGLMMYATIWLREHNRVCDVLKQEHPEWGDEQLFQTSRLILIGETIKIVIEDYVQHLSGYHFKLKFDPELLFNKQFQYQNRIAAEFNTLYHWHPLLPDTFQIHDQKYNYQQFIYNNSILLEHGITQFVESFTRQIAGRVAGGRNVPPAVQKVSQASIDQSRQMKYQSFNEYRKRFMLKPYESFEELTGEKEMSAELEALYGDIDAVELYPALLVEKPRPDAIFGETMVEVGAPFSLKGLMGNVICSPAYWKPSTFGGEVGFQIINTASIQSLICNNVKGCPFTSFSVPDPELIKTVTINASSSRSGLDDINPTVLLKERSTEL
Procedure: (§2) Inhibitory potency of the compounds against COX-1 and COX-2 enzymes was determined using fluorometric COX-1 and COX-2 inhibitor screening kits (Biovision, Zurich, Switzerland). Experimental protocol was followed as described in the guides of the supplier[47]^,[48]. All of the pipettings in the assay were performed by Biotek Precision robotic system (BioTek Instruments, Inc., Winooski, VT). […] Appropriate two points (T1 and T2) in the linear range of the plot were chosen, and the corresponding fluorescence values (RFU1 and RFU2) were obtained. The slope for all samples, including enzyme control (EC), by dividing the net ΔRFU (RFU2–RFU1) values by the time ΔT (T2–T1) were calculated by using following equation: % Relative inhibition=(Slope of EC-Slope of S/Slope of EC)×100
(§3) This initial in vitro assay was done with two concentrations (10^−3 and 10^−4 M) for all compounds. […] The IC50 value was calculated from the plots of enzyme activity against concentrations by applying regression analyses on GraphPad Prism Version 5 (GraphPad Software, La Jolla, CA).
(§4) Selectivity indexes (SI) were expressed as IC50 (COX-1)/IC50 (COX-2). Selectivity toward COX-2 decreases as the corresponding SI decreases while selectivity toward COX-1 isoform increases as the corresponding SI decreases.

COX-1 = target: T2, COX-1 (Ovis aries, UniProt P05979); test: fluorometric COX-1 inhibitor screening kit assay; assay type: biochemical; conditions: for SI (selectivity index): IC50 (COX-1)/IC50 (COX-2); for IC50: fluorometric kit, 25 °C; for Selectivity: isoform preferred according to SI
T2 construct: purchased Biovision K548-100
T2 sequence (P05979 25-600): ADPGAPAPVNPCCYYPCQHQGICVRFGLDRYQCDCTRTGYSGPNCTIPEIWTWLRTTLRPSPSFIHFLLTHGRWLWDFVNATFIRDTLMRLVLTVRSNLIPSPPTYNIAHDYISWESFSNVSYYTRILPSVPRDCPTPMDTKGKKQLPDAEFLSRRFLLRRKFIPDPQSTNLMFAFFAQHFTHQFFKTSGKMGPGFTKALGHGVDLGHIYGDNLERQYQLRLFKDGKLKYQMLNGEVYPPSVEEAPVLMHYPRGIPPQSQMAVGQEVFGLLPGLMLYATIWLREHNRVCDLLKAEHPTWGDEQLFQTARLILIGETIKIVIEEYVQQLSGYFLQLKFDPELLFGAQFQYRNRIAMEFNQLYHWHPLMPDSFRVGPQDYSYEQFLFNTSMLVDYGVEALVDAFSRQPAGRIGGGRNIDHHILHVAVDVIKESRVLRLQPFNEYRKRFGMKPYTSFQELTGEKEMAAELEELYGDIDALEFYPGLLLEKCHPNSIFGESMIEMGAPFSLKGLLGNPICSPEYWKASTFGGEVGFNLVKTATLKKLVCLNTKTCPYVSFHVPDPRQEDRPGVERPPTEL
Procedure: as §2, §3, §4

SMILES: O=C(N[C@H](CO)[C@H](O)c1ccc([N+](=O)[O-])cc1)C(Cl)Cl [Chloramphenicol, reference compound]
- MIC Ec-1 ([1]; 24 h): 6.25 µg/mL (≈ 19.3 µM)
- MIC [1]: 6.25 µg/mL (≈ 19.3 µM)
- MIC Kp [2]: 12.5 µg/mL (≈ 38.7 µM)
- MIC [3]: 12.5 µg/mL (≈ 38.7 µM)
- MIC [4]: 6.25 µg/mL (≈ 19.3 µM)
- MIC [5]: 6.25 µg/mL (≈ 19.3 µM)
- MIC [6]: 6.25 µg/mL (≈ 19.3 µM)

SMILES: Cc1ccc(C(C)C(=O)O)cc1 (stereo not drawn) [Compound 4, 2-(4-methylphenyl) propionic acid]
- MIC [1]: 25 µg/mL (≈ 152 µM)
- MIC Kp [2]: 50 µg/mL (≈ 304 µM)
- MIC [3]: 50 µg/mL (≈ 304 µM)
- MIC [4]: 50 µg/mL (≈ 304 µM)
- MIC [5]: 50 µg/mL (≈ 304 µM)
- MIC [6]: 50 µg/mL (≈ 304 µM)
- MIC [7]: 50 µg/mL (≈ 304 µM)
- MIC [8]: 100 µg/mL (≈ 609 µM)
- MIC [9]: 50 µg/mL (≈ 304 µM)
- IC50 (COX-2): 64.3 µM
- SI (selectivity index) (COX-1): 0.59
- IC50 (COX-1): 38.2 µM
- Selectivity (COX-1): COX-1

SMILES: CC(C(=O)O)c1ccc(CSC2=NCCS2)cc1 (stereo not drawn) [Compound 6a, 2-(4-(((4,5-Dihydrothiazol-2-yl)thio)methyl)phenyl)propanoic acid]
- MIC [1]: 6.25 µg/mL (≈ 22.2 µM)
- MIC Kp [2]: 6.25 µg/mL (≈ 22.2 µM)
- MIC [3]: 12.5 µg/mL (≈ 44.4 µM)
- MIC [4]: 12.5 µg/mL (≈ 44.4 µM)
- MIC [5]: 12.5 µg/mL (≈ 44.4 µM)
- MIC [6]: 12.5 µg/mL (≈ 44.4 µM)
- MIC [7]: 100 µg/mL (≈ 355 µM)
- MIC [8]: 100 µg/mL (≈ 355 µM)
- MIC [9]: 100 µg/mL (≈ 355 µM)
- melting point: 154.2 to 156.3 °C
- IC50 (COX-2): 37.8 µM
- SI (selectivity index) (COX-1): 0.59
- IC50 (COX-1): 22.2 µM
- Selectivity (COX-1): COX-1

SMILES: CC(C(=O)O)c1ccc(CSc2nccn2C)cc1 (stereo not drawn) [Compound 6b, 2-(4-(((1-Methyl-1H-imidazol-2-yl)thio)methyl)phenyl)propanoic acid]
- MIC [1]: 6.25 µg/mL (≈ 22.6 µM)
- MIC Kp [2]: 6.25 µg/mL (≈ 22.6 µM)
- MIC [3]: 12.5 µg/mL (≈ 45.2 µM)
- MIC [4]: 12.5 µg/mL (≈ 45.2 µM)
- MIC [5]: 12.5 µg/mL (≈ 45.2 µM)
- MIC [6]: 12.5 µg/mL (≈ 45.2 µM)
- MIC [7]: 100 µg/mL (≈ 362 µM)
- MIC [8]: 100 µg/mL (≈ 362 µM)
- MIC [9]: 50 µg/mL (≈ 181 µM)
- IC50 (COX-2): 47.4 µM
- SI (selectivity index) (COX-1): 0.60
- IC50 (COX-1): 28.6 µM
- Selectivity (COX-1): COX-1

SMILES: CC(C(=O)O)c1ccc(CSc2nc[nH]n2)cc1 (stereo not drawn) [Compound 6c, 2-(4-(((1H-1,2,4-Triazol-3-yl)thio)methyl)phenyl)propanoic acid]
- MIC [1]: 6.25 µg/mL (≈ 23.7 µM)
- MIC Kp [2]: 12.5 µg/mL (≈ 47.5 µM)
- MIC [3]: 12.5 µg/mL (≈ 47.5 µM)
- MIC [4]: 12.5 µg/mL (≈ 47.5 µM)
- MIC [5]: 12.5 µg/mL (≈ 47.5 µM)
- MIC [6]: 12.5 µg/mL (≈ 47.5 µM)
- MIC [7]: 50 µg/mL (≈ 190 µM)
- MIC [8]: 100 µg/mL (≈ 380 µM)
- MIC [9]: 50 µg/mL (≈ 190 µM)
- IC50 (COX-2): 36.7 µM
- SI (selectivity index) (COX-1): 0.53
- IC50 (COX-1): 19.5 µM
- Selectivity (COX-1): COX-1
